Source: US12692253B2, “Antimicrobial compounds and methods” (Curza Global, LLC, priority 2019, dated 2026)
Like-named read-outs stand apart in the source and are kept apart here.

Assays:
[1] = system: E. coli S30 extract (bacterial protein synthesis); assay: E. coli S30 extract coupled transcription-translation luciferase assay (inhibition of bacterial protein synthesis); format: biochemical; conditions: read-out: S30 IC50 (μM/% inhib.)
Procedure, shortened: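 Coupled transcription-translation in E. coli S30 circular-DNA extract expressing luciferase from pBESTluc, with 8-point 2-fold compound dilutions; 1 hour at 37 °C, stopped at 4 °C. Luminescence read; % inhibition versus no-inhibitor wells, no-DNA wells as background.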

[2] = biological target: Rabbit Reticulocyte Lysate (eukaryotic protein synthesis); assay: Rabbit reticulocyte lysate luciferase assay (inhibition of eukaryotic protein synthesis); format: biochemical; conditions: read-out: Rabbit reticulocyte IC50 (μM/% inhib.)
Procedure, shortened: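 In vitro translation of luciferase control RNA in nuclease-treated rabbit reticulocyte lysate with amino acid mixture, compounds in 2-fold serial dilution, 90 minutes at 30° C. Luminescence read after luciferase reagent; % inhibition relative to water no-inhibitor controls, with no-RNA background wells.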

A. baumannn (Ab) = assay: Broth microdilution minimum inhibitory concentration (MIC), CLSI; format: cell-based; conditions: read-out: Ab + bicarb MIC
Procedure, shortened: (§1)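 CLSI broth microdilution with modification: 8-point two-fold compound dilutions in CAMHB, CAMHB plus 6.25 or 25 mM sodium bicarbonate, or CAMHB plus 0–50% heat-inactivated human serum. Inoculum 5×10^4 CFU/well from log-phase cultures adjusted to 0.5 McFarland; triplicate wells.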

E. coli (Ec) = assay: as above; format: cell-based; conditions: Escherichia coli, read-out: E. coli + bicarb MIC
Procedure, shortened: as §1

E. faecalis (Ef) = assay: as above; format: cell-based; conditions: Enterococcus faecalis, read-out: Ef + bicarb MIC
Procedure, shortened: as §1

P. aeruginosa (Pa) = assay: as above; format: cell-based; conditions: Pseudomonas aeruginosa, read-out: Pa MIC + bicarb
Procedure, shortened: as §1

S. aureus (Sa) = assay: as above; format: cell-based; conditions: Staphylococcus aureus, read-out: Sa + bicarb MIC
Procedure, shortened: as §1

[3] = class by IC50 or % inhibition @ 1 μM
[4] = growth medium supplemented with sodium bicarbonate
[5] = A. baumannn, growth medium with sodium bicarbonate
[6] = growth medium with sodium bicarbonate

CC(Cc1ccc(-n2ccc(NC(=O)N3CCN(C(=O)C(C)(C)N)CC3)nc2=O)cc1)N1CC2(CC(N)C2)C1 (stereo not drawn) [Compound 112]
IC50 [1, 3]: 0.5 to 1 µM | IC50 [2, 3]: ≥ 1 µM | MIC (A. baumannn (Ab); Acinetobacter baumannii): > 32 µg/mL | MIC (E. coli (Ec); [4]): < 8 µg/mL | MIC (E. faecalis (Ef); [4]): 8 to 32 µg/mL | MIC (P. aeruginosa (Pa); [4]): > 32 µg/mL | MIC (S. aureus (Sa); [4]): < 8 µg/mL

NCCC1CCN(C(=O)Nc2ccn(-c3ccc(CN4C[C@@H]5[C@@H](N)[C@@H]5C4)cc3)c(=O)n2)CC1 [Compound 250]
IC50 ([1]; % inhibition @ 1 μM): ≥ 1 µM | IC50 ([2]; % inhibition @ 1 μM): ≥ 1 µM | MIC (A. baumannn (Ab); [5]): > 32 µg/mL | MIC (E. coli (Ec); [6]): > 32 µg/mL | MIC (E. faecalis (Ef); [6]): > 32 µg/mL | MIC (P. aeruginosa (Pa); [6]): > 32 µg/mL | MIC (S. aureus (Sa); [6]): > 32 µg/mL

CC(N)[C@H]1[C@@H]2CN(Cc3ccc(-n4ccc(NC(=O)N5CCN(C(=O)C(C)(C)N)CC5)nc4=O)cc3)C[C@@H]21 (stereo partly drawn) [Compound 73]
IC50 [1, 3]: < 0.5 µM | IC50 [2, 3]: ≥ 1 µM | MIC (A. baumannn (Ab); Acinetobacter baumannii): > 32 µg/mL | MIC (E. coli (Ec); [4]): < 8 µg/mL | MIC (E. faecalis (Ef); [4]): 8 to 32 µg/mL | MIC (P. aeruginosa (Pa); [4]): > 32 µg/mL | MIC (S. aureus (Sa); [4]): < 8 µg/mL

N[C@@H]1[C@H]2CN(Cc3ccc(-n4ccc(NC(=O)N5CCC6(CCNCC6)CC5)nc4=O)cc3)C[C@@H]12 [Compound 62]
IC50 [1, 3]: ≥ 1 µM | IC50 [2, 3]: ≥ 1 µM | MIC (A. baumannn (Ab); Acinetobacter baumannii): > 32 µg/mL | MIC (E. coli (Ec); [4]): < 8 µg/mL | MIC (E. faecalis (Ef); [4]): 8 to 32 µg/mL | MIC (P. aeruginosa (Pa); [4]): > 32 µg/mL | MIC (S. aureus (Sa); [4]): < 8 µg/mL

CCN(C(C)Cc1ccc(-n2ccc(NC(=O)N3CCN(C(=O)C(C)(C)N)CC3)nc2=O)cc1)C12CC(CN)(C1)C2 (stereo not drawn) [Compound 201]
IC50 ([1]; % inhibition @ 1 μM): < 0.5 µM | IC50 ([2]; % inhibition @ 1 μM): ≥ 1 µM | MIC (A. baumannn (Ab); [5]): > 32 µg/mL | MIC (E. coli (Ec); [6]): < 8 µg/mL | MIC (E. faecalis (Ef); [6]): < 8 µg/mL | MIC (P. aeruginosa (Pa); [6]): > 32 µg/mL | MIC (S. aureus (Sa); [6]): < 8 µg/mL

CC(C)(N)C(=O)N1CCN(C(=O)Nc2ccn(-c3ccc(CN4CC5(CC(N)C5)C4)cc3)c(=O)n2)CC1 [Compound 34]
IC50 [1, 3]: < 0.5 µM | IC50 [2, 3]: ≥ 1 µM | MIC (A. baumannn (Ab); Acinetobacter baumannii): > 32 µg/mL | MIC (E. coli (Ec); [4]): < 8 µg/mL | MIC (E. faecalis (Ef); [4]): 8 to 32 µg/mL | MIC (P. aeruginosa (Pa); [4]): > 32 µg/mL | MIC (S. aureus (Sa); [4]): < 8 µg/mL

CC(C)(N)C(=O)N1CCN(C(=O)Nc2ccn(-c3ccc(CNC45CCC(N)(CC4)CC5)cc3)c(=O)n2)CC1 [Compound 167]
IC50 ([1]; % inhibition @ 1 μM): < 0.5 µM | IC50 ([2]; % inhibition @ 1 μM): ≥ 1 µM | MIC (A. baumannn (Ab); [5]): 8 to 32 µg/mL | MIC (E. coli (Ec); [6]): < 8 µg/mL | MIC (E. faecalis (Ef); [6]): < 8 µg/mL | MIC (P. aeruginosa (Pa); [6]): 8 to 32 µg/mL | MIC (S. aureus (Sa); [6]): < 8 µg/mL

CC(c1ccc(-n2ccc(NC(=O)N3CCN(C(=O)C(C)(C)N)CC3)nc2=O)cc1)N1C[C@@H]2[C@@H](N)[C@@H]2C1 (stereo partly drawn) [Compound 67]
IC50 [1, 3]: < 0.5 µM | IC50 [2, 3]: ≥ 1 µM | MIC (A. baumannn (Ab); Acinetobacter baumannii): > 32 µg/mL | MIC (E. coli (Ec); [4]): < 8 µg/mL | MIC (E. faecalis (Ef); [4]): < 8 µg/mL | MIC (P. aeruginosa (Pa); [4]): > 32 µg/mL | MIC (S. aureus (Sa); [4]): < 8 µg/mL

C[C@@](N)(CO)C(=O)N1CCN(C(=O)Nc2ccn(-c3ccc(CN4C[C@@H]5[C@@H](N)[C@@H]5C4)cc3)c(=O)n2)CC1 [Compound 40]
IC50 [1, 3]: < 0.5 µM | IC50 [2, 3]: ≥ 1 µM | MIC (A. baumannn (Ab); Acinetobacter baumannii): > 32 µg/mL | MIC (E. coli (Ec); [4]): < 8 µg/mL | MIC (E. faecalis (Ef); [4]): < 8 µg/mL | MIC (P. aeruginosa (Pa); [4]): > 32 µg/mL | MIC (S. aureus (Sa); [4]): < 8 µg/mL

CNC[C@@H]1[C@H]2CN(Cc3ccc(-n4ccc(NC(=O)N5CCN(C(=O)C(C)(C)N)CC5)nc4=O)cc3)C[C@@H]12 [Compound 75]
IC50 [1, 3]: < 0.5 µM | IC50 [2, 3]: ≥ 1 µM | MIC (A. baumannn (Ab); Acinetobacter baumannii): > 32 µg/mL | MIC (E. coli (Ec); [4]): < 8 µg/mL | MIC (E. faecalis (Ef); [4]): 8 to 32 µg/mL | MIC (P. aeruginosa (Pa); [4]): > 32 µg/mL | MIC (S. aureus (Sa); [4]): < 8 µg/mL

CC(C)(N)C(=O)N1CCN(C(=O)Nc2ccn(-c3ccc(CN4C[C@@H]5[C@H](N)[C@@H]5C4)cc3)c(=O)n2)CC1 [Compound 14]
IC50 [1, 3]: < 0.5 µM | IC50 [2, 3]: ≥ 1 µM | MIC (A. baumannn (Ab); Acinetobacter baumannii): > 32 µg/mL | MIC (E. coli (Ec); [4]): < 8 µg/mL | MIC (E. faecalis (Ef); [4]): < 8 µg/mL | MIC (P. aeruginosa (Pa); [4]): > 32 µg/mL | MIC (S. aureus (Sa); [4]): < 8 µg/mL

CCN(Cc1ccc(-n2ccc(NC(=O)N3CCN(C(=O)C(C)(C)N)CC3)nc2=O)cc1)C12CC(CN)(C1)C2 [Compound 175]
IC50 ([1]; % inhibition @ 1 μM): ≥ 1 µM | IC50 ([2]; % inhibition @ 1 μM): ≥ 1 µM | MIC (A. baumannn (Ab); [5]): > 32 µg/mL | MIC (E. coli (Ec); [6]): < 8 µg/mL | MIC (E. faecalis (Ef); [6]): < 8 µg/mL | MIC (P. aeruginosa (Pa); [6]): > 32 µg/mL | MIC (S. aureus (Sa); [6]): < 8 µg/mL

CCC(Cc1ccc(-n2ccc(NC(=O)N3CCN(C(=O)C(C)(C)N)CC3)nc2=O)cc1)N1C[C@@H]2[C@@H](CNC)[C@@H]2C1 (stereo partly drawn) [Compound 221]
IC50 ([1]; % inhibition @ 1 μM): ≥ 1 µM | IC50 ([2]; % inhibition @ 1 μM): ≥ 1 µM | MIC (A. baumannn (Ab); [5]): < 8 µg/mL | MIC (E. coli (Ec); [6]): < 8 µg/mL | MIC (E. faecalis (Ef); [6]): < 8 µg/mL | MIC (P. aeruginosa (Pa); [6]): > 32 µg/mL | MIC (S. aureus (Sa); [6]): < 8 µg/mL

C[C@](N)(CO)C(=O)N1CCN(C(=O)Nc2ccn(-c3ccc(CN4C[C@@H]5[C@@H](N)[C@@H]5C4)c(Cl)c3)c(=O)n2)CC1 [Compound 25]
IC50 [1, 3]: < 0.5 µM | IC50 [2, 3]: ≥ 1 µM | MIC (A. baumannn (Ab); Acinetobacter baumannii): > 32 µg/mL | MIC (E. coli (Ec); [4]): < 8 µg/mL | MIC (E. faecalis (Ef); [4]): > 32 µg/mL | MIC (P. aeruginosa (Pa); [4]): > 32 µg/mL | MIC (S. aureus (Sa); [4]): < 8 µg/mL

CC(C)(N)C(=O)N1CCN(C(=O)Nc2ccn(-c3ccc(CCN4C[C@@H]5[C@@H](CN)[C@@H]5C4)cc3)c(=O)n2)CC1 [Compound 116]
IC50 [1, 3]: < 0.5 µM | IC50 [2, 3]: ≥ 1 µM | MIC (A. baumannn (Ab); Acinetobacter baumannii): < 8 µg/mL | MIC (E. coli (Ec); [4]): < 8 µg/mL | MIC (E. faecalis (Ef); [4]): 8 to 32 µg/mL | MIC (P. aeruginosa (Pa); [4]): 8 to 32 µg/mL | MIC (S. aureus (Sa); [4]): < 8 µg/mL

C[C@@](N)(CO)C(=O)N1CCN(C(=O)Nc2ccn(-c3ccc(CCN4CC5CC5(CN)C4)cc3)c(=O)n2)CC1 (stereo partly drawn) [Compound 120]
IC50 [1, 3]: < 0.5 µM | IC50 [2, 3]: ≥ 1 µM | MIC (A. baumannn (Ab); Acinetobacter baumannii): > 32 µg/mL | MIC (E. coli (Ec); [4]): < 8 µg/mL | MIC (E. faecalis (Ef); [4]): 8 to 32 µg/mL | MIC (P. aeruginosa (Pa); [4]): 8 to 32 µg/mL | MIC (S. aureus (Sa); [4]): < 8 µg/mL

CC(Cc1ccc(-n2ccc(NC(=O)N3CCN(C(=O)C(C)(C)N)CC3)nc2=O)cc1)N1CC2(CCC2N)C1 (stereo not drawn) [Compound 111]
IC50 [1, 3]: ≥ 1 µM | IC50 [2, 3]: ≥ 1 µM | MIC (A. baumannn (Ab); Acinetobacter baumannii): > 32 µg/mL | MIC (E. coli (Ec); [4]): < 8 µg/mL | MIC (E. faecalis (Ef); [4]): 8 to 32 µg/mL | MIC (P. aeruginosa (Pa); [4]): > 32 µg/mL | MIC (S. aureus (Sa); [4]): < 8 µg/mL

CC(C)(N)C(=O)N1CCN(C(=O)Nc2ccn(-c3ccc(CNC45CC(CN)(C4)C5)cc3)c(=O)n2)CC1 [Compound 173]
IC50 ([1]; % inhibition @ 1 μM): ≥ 1 µM | IC50 ([2]; % inhibition @ 1 μM): ≥ 1 µM | MIC (A. baumannn (Ab); [5]): > 32 µg/mL | MIC (E. coli (Ec); [6]): < 8 µg/mL | MIC (E. faecalis (Ef); [6]): > 32 µg/mL | MIC (P. aeruginosa (Pa); [6]): > 32 µg/mL | MIC (S. aureus (Sa); [6]): > 32 µg/mL
